US20230270752A1, “METHODS OF TREATING PHELAN MCDERMID SYNDROME USING FARNESYL DIBENZODIAZEPINONES” (AMO Pharma Ltd., priority 2017, published 2023)
“Also recorded” adds a separate entry of the source.

How the values were obtained:
[1] = tested on: induced pluripotent stem (IPS) cell lines derived from PMS patients; settings: PMS patient-derived IPS cell lines; cited from earlier work
Shank3 knockout mice = settings: placebo controlled, 12 weeks of treatment; cited from earlier work
Shank3 knockout mouse = settings: Shank3 exon 4-9 deletion mouse; cited from earlier work
[2] = tested on: Shank3b KO transgenic model of PMS; test: Beam walking test (sensory motor function); format: in vivo, mice; settings: single dose 30 mg/kg i.p.
Experimental: (§1) Shank3b^-/- homozygous mice with deletions of exons 13-16, initially obtained from the Jackson Laboratory, and wild type (WT) littermates were generated on a C57BL/6J background and repeatedly backcrossed onto a C57BL/6J background for more than eight generations. The resulting Shank3 knockout (KO) mice were housed in groups of the same genotype in a temperature and humidity controlled room with a 12-h light-dark cycle (lights on 7 am to 7 pm). Room temperature and humidity were recorded continuously in the holding room. Testing was conducted during the light phase. Food and water were available ad libitum. Testing was conducted on Shank3 knockout mice and their wild type littermates, with N = 10 mice per treatment group, tested at two months of age during behavioral experiments. Mice were housed in commercial plastic cages and experiments were conducted in line with the requirements of the UK Animals (Scientific Procedures) Act, 1986. All experiments were conducted with experimenters blind to genotype and drug treatment. Animals were allowed a minimum acclimatization period of one week prior to performing any experiment. Only healthy animals were used. No prophylactic or therapeutic treatment was to be administered during the acclimatization period. […]
Day 4: Sensory motor function as assessed by beam walking tests. […]

[3] = tested on: Shank3b KO transgenic model of PMS; test: Excessive self-grooming test (self-injurious behavior); format: in vivo, mice; settings: single dose 30 mg/kg i.p.
Experimental: as §1, with “experiment.” for “experiment. Only healthy animals were used. No prophylactic or therapeutic treatment was to be administered during the acclimatization period.”
Day 2: Excessive grooming leading to skin lesions. […] During this test, time spent grooming in all sequences: face-wiping, scratching/rubbing of head and ears, and full-body grooming was scored by an observer blind to genotype during the scoring.

[4] = tested on: person with a genetically confirmed diagnosis of Phelan McDermid Syndrome; test: Clinical assessment of seizures and behavior in a Phelan McDermid Syndrome subject; format: in vivo; settings: human PMS subject
Experimental: A person with a genetically confirmed diagnosis of Phelan McDermid Syndrome was administered AMO-01.
(§2) The study drug was prepared from a sterile bulk formulation containing 32.8 mg/mL (3.15% w/w) of the active drug substance dissolved in sterile 0.9% saline solution to produce an isotonic final dosing formulation. Each drug product vial contained 70 mg of AMO-01 drug substance in 2.134 mL of formulation (plus 2% overage). This corresponded to a total drug content of 71.4 mg of active drug substance per 2.176 mL of formula. AMO-01 was administered as a single dose via intravenous infusions over a 6 hour period, with the total dose administered as 120 mg/m^2.
Seizure frequency and Visual Evoked Potentials (VEPs) were assessed alongside clinical measures. VEPs provide a noninvasive technique to evaluate the functional integrity of visual pathways in the brain from the retina to the visual cortex via the optic nerve/optic radiations. The VEP is recorded from the head’s surface, over the visual cortex, and is extracted from ongoing EEG through signal averaging. VEPs reflect the sum of excitatory and inhibitory postsynaptic potentials occurring on apical dendrites (Zemon et al., 1986) which modulate excitatory and inhibitory signals received by the pyramidal cells. The major positive and negative peaks and troughs in VEP waveforms reflect different cellular events. The contrast-reversing checkerboard stimulus used in this study produces a positive peak at approximately 60 ms (P0 or P60), reflecting activation of the primary visual cortex from the lateral geniculate nucleus. A negative peak at approximately 75 ms (N0 or N75) reflecting depolarization and glutamatergic postsynaptic activity spreading to the superficial layers of primary visual cortex, and a positive peak at approximately 100 ms (P1 or P100) reflecting superficial hyperpolarization and GABAergic activity (Zemon et al., 1980). VEPs have been used in clinical trials; for example, an antiepileptic drug (gabapentin; Conte et al., 2009) and an infant formula (O′Connor et al., 2009). Both received FDA approval based in part on positive findings from VEP studies. Data from ongoing clinical trials at Mount Sinai provide support for use of VEPs as a measure of treatment response. Assessments of clinical response were made before treatment, after six hours of treatment, and one week, two weeks and four weeks after treatment according to the schematic in FIG. 8.

[5] = tested on: Shank3b KO transgenic model of PMS; test: Marble burying test (species typical behaviors); format: in vivo, mice; settings: single dose 30 mg/kg i.p.
Experimental: as §1
Day 5: Activities of daily living / species typical behaviors as assessed by marble burying. […]

[6] = tested on: Shank3b KO transgenic model of PMS; test: Light dark box test (anxiety); format: in vivo, mice; settings: single dose 30 mg/kg i.p., 4 hours before testing
Experimental: as §1

[7] = tested on: person with a genetically confirmed diagnosis of Phelan McDermid Syndrome; test: Visual Evoked Potentials in a Phelan McDermid Syndrome subject; format: in vivo; settings: human PMS subject, 120 mg/m^2 i.v. over 6 hours
Experimental: as §2
Seizure frequency and Visual Evoked Potentials (VEPs) were assessed alongside clinical measures. VEPs provide a noninvasive technique to evaluate the functional integrity of visual pathways in the brain from the retina to the visual cortex via the optic nerve/optic radiations. The VEP is recorded from the head’s surface, over the visual cortex, and is extracted from ongoing EEG through signal averaging. VEPs reflect the sum of excitatory and inhibitory postsynaptic potentials occurring on apical dendrites (Zemon et al., 1986) which modulate excitatory and inhibitory signals received by the pyramidal cells. The major positive and negative peaks and troughs in VEP waveforms reflect different cellular events. […]

[8] = tested on: Shank3b KO transgenic model of PMS; test: Audiogenic seizure threshold test; format: in vivo; settings: Shank3b KO mice, single dose 30 mg/kg i.p., 124 db 60 s stimulus
Experimental: as §1
Seizure threshold as assessed by audiogenic seizures was assessed in a separate cohort with N = 10 per group. […]

[9] = tested on: Shank3 knockout transgenic mouse model of Phelan McDermid Syndrome; test: Behavioral testing battery overall (five days after single dose); format: in vivo, mice
Experimental: Shank3b^-/- homozygous mice with deletions of exons 13-16, initially obtained from the Jackson Laboratory, and wild type (WT) littermates were generated on a C57BL/6J background and repeatedly backcrossed onto a C57BL/6J background for more than eight generations. The resulting Shank3 knockout (KO) mice were housed in groups of the same genotype in a temperature and humidity controlled room with a 12-h light-dark cycle (lights on 7 am to 7 pm). Room temperature and humidity were recorded continuously in the holding room. Testing was conducted during the light phase. Food and water were available ad libitum. Testing was conducted on Shank3 knockout mice and their wild type littermates, with N = 10 mice per treatment group, tested at two months of age during behavioral experiments. Mice were housed in commercial plastic cages and experiments were conducted in line with the requirements of the UK Animals (Scientific Procedures) Act, 1986. All experiments were conducted with experimenters blind to genotype and drug treatment. Animals were allowed a minimum acclimatization period of one week prior to performing any experiment. Only healthy animals were used. No prophylactic or therapeutic treatment was to be administered during the acclimatization period.
AMO-01 from AMO Pharma Ltd was administered to mice as follows: • A. AMO-01 at a single dose of 30 mg/kg intraperitoneally in a vehicle of ethanol, PEG 400 and polysorbate 80 and 5% dextrose • B. Vehicle dosed intraperitoneally as 15 ml/kg Groups of N = 10 mice were treated 4 hours before testing on the first day of testing. Five days of testing were undertaken following the single intraperitoneal dose administered on Day 1.
The following groups were studied: • 1. Shank3b^-/- knockout mice + vehicle, N = 10 • 2. Shank3b^-/- knockout mice + AMO-01 30 mg/kg i.p., N = 10 • 3. Wild Type litter mates + vehicle, N = 10 • 4. Wild Type litter mates + AMO-01 30 mg/kg i.p., N = 10
The following tests were administered.

[10] = tested on: Shank3b KO transgenic model of PMS; test: Social recognition and response to social novelty test; format: in vivo, mice; settings: single dose 30 mg/kg i.p.
Experimental: as §1

[11] = Shank3 knockout mice, 30 mg/kg i.p. single dose

Molecule: IGF-1: insulin-like growth factor 1 (IGF-1)
- Impaired post-synaptic AMPA and NMDA receptor responses / excitatory synapse deficits [1]: rescued
- Social, repetitive and aberrant behaviors (Shank3 knockout mice): improvements in social, repetitive and aberrant behaviors
- Phenotype / deficits of Shank3 knockout mouse (Shank3 knockout mouse): deficits in this model reversed; also recorded: rescue of the phenotype

Molecule: CC(C)=CCC/C(C)=C/CC/C(C)=C/CN1C(=O)c2cccc(O)c2Nc2c(O)cc(O)cc21 [AMO-01, 10-farnesyl-4,6,8-trihydroxy-dibenzodiazepin-11-one]
- Beam walking deficit ([2]; Shank3b-/- KO mice, Day 4): significantly reduced the deficit shown in Shank3b^-/- mice (p <0.0001). This reversal was complete
- Effect on beam walking behavior ([2]; Wild Type mice): no significant effect
- Excessive self-grooming deficit ([3]; Shank3b-/- KO mice, Day 2): significantly reduced the deficit shown in Shank3b^-/- mice (p <0.0001). This reversal was complete
- Effect on self-grooming ([3]; Wild Type mice): no significant effect
- Recurrence of seizure events after infusion ([4]; 120 mg/m^2 i.v. over 6 hours): Approximately three weeks after the study drug infusion
- Social, behavioral and motor changes during seizure-free period ([4]; 120 mg/m^2 i.v. over 6 hours): became more social, more engaged (e.g. better eye contact), more cooperative, less restless, and their motor skills also improved
- Seizure occurrence after infusion ([4]; 120 mg/m^2 i.v. over 6 hours, baseline 3 to 4 seizures a week): seizures stopped altogether for the next two weeks
- Impending seizure episode at time of infusion ([4]; single i.v. infusion 120 mg/m^2 over 6 hours): appeared to completely abort the impending seizure episode
- Marble burying deficit ([5]; Shank3b-/- KO mice, Day 5): significantly reduced the deficit shown in Shank3b^-/- KO mice (p <0.0001). This reversal was complete
- Effect on marble burying behavior ([5]; Wild Type mice): no significant effect
- Anxiety deficit in light dark box test ([6]; Shank3b-/- KO mice, Day 1): significantly reduced the deficit shown in Shank3b^-/- mice (p <0.0001) although this reversal was not complete
- Effect on light dark box anxiety behavior ([6]; Wild Type mice): no significant effect
- Visual Evoked Potentials before vs six hours after infusion [7]: ameliorated by treatment
- Audiogenic seizure threshold [8]: rescue of lowered audiogenic seizure threshold
- Deficits across anxiety, grooming, sociability, sensori-motor and species typical behaviour domains [9, 11]: reversed deficits in all of these domains
- Duration of rescue of the phenotype after a single dose [9, 11]: persisted for at least five days
- Effect across anxiety, grooming, sociability, sensori-motor function, species typical behaviours, cognition ([9]; Wild Type mice, 30 mg/kg i.p.): without effect
- Response to social novelty (time in interaction with familiar or novel mouse) ([10]; Shank3b KO mice, Day 3, 30 mg/kg): rescue of response to social novelty; also recorded: normalizes the differential response to social novelty
- Response to social novelty (time in interaction with familiar or novel mouse) ([10]; Wild Type mice): not affected by treatment
